The target in assay [1] is ROCK1 (Homo sapiens (Human), UniProt Q13464). Put plainly: ROCK1 kinase inhibition assay (LABCHIP peptide phosphorylation). Particulars: 5 μM ATP, 3 nM ROCK1, 3 hours at 25° C. It counts as biochemical. The protocol: (§1) The peptide is >98% purity by Capillary Electrophoresis. The peptide is phosphorylated by the protein kinase ROCK1 or ROCK2. The ROCK1 or ROCK2 enzyme, substrate, and cofactors (ATP and Mg^2+) are combined in a well of a microtiter plate and incubated for 3 hours at 25° C. At the end of the incubation, the reaction is quenched by the addition of an EDTA-containing buffer. The substrate and product are separated and quantified electrophoretically using the microfluidic-based LABCHIP® 3000 Drug Discovery System from Caliper Life Sciences (Hopkinton, Mass.).
(§2) Substrate and product peptides present in each sample are separated electrophoretically using the LABCHIP® 3000 capillary electrophoresis instrument. […] Change in the relative fluorescence intensity of the substrate and product peaks is the parameter measured reflecting enzyme activity. Capillary electrophoregramms (RDA acquisition files) are analyzed using HTS Well Analyzer software (Caliper Life Sciences, Hopkinton, Mass.). The kinase activity in each sample is determined as the product to sum ratio (PSR): P/(S+P), where P is the peak height of the product peptide and S is the peak height of the substrate peptide. For each compound, enzyme activity is measured at various concentrations (12 concentrations of compound spaced by 3× dilution intervals). Negative control samples (0%-inhibition in the absence of inhibitor) and positive control samples (100%-inhibition in the presence of 20 mM EDTA) are assembled in replicates of four and are used to calculate %-inhibition values for each compound at each concentration. Percent inhibition (Pinh) is determined using the following equation: Pinh=(PSR0%−PSRinh)/(PSR0%−PSR100%)*100 where PSRinh is the product sum ratio in the presence of inhibitor, PSR/% is the average product sum ratio in the absence of inhibitor, and PSR100% is the average product sum ratio in 100%-inhibition control samples. The IC50 values of inhibitors are determined by fitting the inhibition curves (Pinh versus inhibitor concentration) by 4 parameter sigmoidal dose-response model using XLfit 4 software (IBDS).

Assay [2] has as its target ROCK2 (Homo sapiens (Human), UniProt O75116). Briefly: ROCK2 kinase inhibition assay (LABCHIP peptide phosphorylation). It counts as biochemical. Particulars: 7 μM ATP, 2.5 nM ROCK2, 3 hours at 25° C. The protocol: as §1, §2
Assay [3] relates to K562 cell line. Briefly: Cell viability assay ([…]-GLO), K562. Conditions: Homo sapiens; K562 (does not express ITD-FLT3), 72 hours treatment. Format: cell-based. The protocol:
(§3) Cell viability in the presence of varying concentrations of the above listed compounds at different time points was used to assess cytotoxicity and the effect of the compounds on cell proliferation.
(§4) Cell viability was measured by the […]-GlO® cell viability assay from Promega (Madison, Wis.). The […]-GlO® Luminescent Cell Viability Assay is a homogeneous method to determine the number of viable cells in culture based on quantitation of the ATP present, which signals the presence of metabolically active cells. Following treatment, […]-GlO® is added to treatment wells and incubated at 37° C. luminescence values were measured at using a Molecular Devices Spectramax microplate reader.
Cells were grown to 70% confluency, trypsinized, counted, and seeded in 96 well flat-bottom plates at a final concentration of 2.5×10^3-5×10^3 cells/well (Day 0). Cells were allowed to incubate in growth media for 24 hours. Treatment with the test agents or standard agents began on Day 1 and continued for 72 hours. At the 72-hour time point, treatment containing media was removed. Viable cell numbers were quantified by the […]-GLO® cell viability assay as described above. Results from these studies were used to calculate an IC50 value (concentration of drug that inhibits cell growth by 50 percent of control) for each compound.
For single agent and combination studies, data from each experiment was collected and expressed as % Cell Growth using the following calculation: % Cell Growth=(ftest/fvehicle)×100 Where ftest is the luminescence of the tested sample, and fvehicle is the luminescence of the vehicle in which the drug is dissolved. Dose response graphs and IC50 values were generated using Prism 6 software (GraphPad) using the following equation: Y=(Top−Bottom/(1+10^((logIC50−X)−HillSlope)) Where X is the logarithm of the concentration and Y is the response. Y starts at the Bottom and goes to the Top with a sigmoid shape. […]

Assay [4] relates to MV411 cell line. Briefly: Cell viability assay ([…]-GLO), MV411. Format: cell-based. Conditions: for IC50: Homo sapiens, MV4-11, MV411 (ITD-FLT3+), 72 hours treatment; for FLT3-ITD+ Selectivity (K562/MV411): ratio of K562 to MV411 IC50. On the procedure:
as §3, §4
Cells were grown to 70% confluency, trypsinized, counted, and seeded in 96 well flat-bottom plates at a final concentration of 2.5×10^3-5×10^3 cells/well (Day 0). Cells were allowed to incubate in growth media for 24 hours. Treatment with the test agents or standard agents began on Day 1 and continued for 72 hours. At the 72-hour time point, treatment containing media was removed.
For single agent and combination studies, data from each experiment was collected and expressed as % Cell Growth using the following calculation: % Cell Growth=(ftest/fvehicle)×100 Where ftest is the luminescence of the tested sample, and fvehicle is the luminescence of the vehicle in which the drug is dissolved. Dose response graphs and IC50 values were generated using Prism 6 software (GraphPad) using the following equation: Y=(Top−Bottom/(1+10^((logIC50−X)−HillSlope)) Where X is the logarithm of the concentration and Y is the response. Y starts at the Bottom and goes to the Top with a sigmoid shape.
The experiments also evaluated the selectivity of the compounds for inhibiting growth of cancer cells carrying a mutation in the Flt3 gene. The MV411 cell line expresses the mutant allele of Flt3 with internal tandem duplications (ITD) of the gene. See Quentmeier et al., “FLT3 Mutations in Acute Myeloid Leukemia Cell Lines,” Leukemia 17(1), 2003, 120-124. […] See Grafone et al., “Monitoring of FLT3 Phosphorylation Status and Its Response to Drugs By Flow Cytometry in AML Blast Cells,” Hematol Oncol. 26(3), 2008, 159-166. Patients with ITD-FLT3^+ acute myeloid leukemia (AML) experience an extremely poor prognosis.

Some results are limits rather than exact numbers.

The values below come from patent publication US10392402B2, “Heterocyclic compounds as kinase inhibitors” (TRANSLATIONAL DRUG DEVELOPMENT LLC, priority 2015, dated 2019).

Chain of ROCK2 (O75116 whole entry): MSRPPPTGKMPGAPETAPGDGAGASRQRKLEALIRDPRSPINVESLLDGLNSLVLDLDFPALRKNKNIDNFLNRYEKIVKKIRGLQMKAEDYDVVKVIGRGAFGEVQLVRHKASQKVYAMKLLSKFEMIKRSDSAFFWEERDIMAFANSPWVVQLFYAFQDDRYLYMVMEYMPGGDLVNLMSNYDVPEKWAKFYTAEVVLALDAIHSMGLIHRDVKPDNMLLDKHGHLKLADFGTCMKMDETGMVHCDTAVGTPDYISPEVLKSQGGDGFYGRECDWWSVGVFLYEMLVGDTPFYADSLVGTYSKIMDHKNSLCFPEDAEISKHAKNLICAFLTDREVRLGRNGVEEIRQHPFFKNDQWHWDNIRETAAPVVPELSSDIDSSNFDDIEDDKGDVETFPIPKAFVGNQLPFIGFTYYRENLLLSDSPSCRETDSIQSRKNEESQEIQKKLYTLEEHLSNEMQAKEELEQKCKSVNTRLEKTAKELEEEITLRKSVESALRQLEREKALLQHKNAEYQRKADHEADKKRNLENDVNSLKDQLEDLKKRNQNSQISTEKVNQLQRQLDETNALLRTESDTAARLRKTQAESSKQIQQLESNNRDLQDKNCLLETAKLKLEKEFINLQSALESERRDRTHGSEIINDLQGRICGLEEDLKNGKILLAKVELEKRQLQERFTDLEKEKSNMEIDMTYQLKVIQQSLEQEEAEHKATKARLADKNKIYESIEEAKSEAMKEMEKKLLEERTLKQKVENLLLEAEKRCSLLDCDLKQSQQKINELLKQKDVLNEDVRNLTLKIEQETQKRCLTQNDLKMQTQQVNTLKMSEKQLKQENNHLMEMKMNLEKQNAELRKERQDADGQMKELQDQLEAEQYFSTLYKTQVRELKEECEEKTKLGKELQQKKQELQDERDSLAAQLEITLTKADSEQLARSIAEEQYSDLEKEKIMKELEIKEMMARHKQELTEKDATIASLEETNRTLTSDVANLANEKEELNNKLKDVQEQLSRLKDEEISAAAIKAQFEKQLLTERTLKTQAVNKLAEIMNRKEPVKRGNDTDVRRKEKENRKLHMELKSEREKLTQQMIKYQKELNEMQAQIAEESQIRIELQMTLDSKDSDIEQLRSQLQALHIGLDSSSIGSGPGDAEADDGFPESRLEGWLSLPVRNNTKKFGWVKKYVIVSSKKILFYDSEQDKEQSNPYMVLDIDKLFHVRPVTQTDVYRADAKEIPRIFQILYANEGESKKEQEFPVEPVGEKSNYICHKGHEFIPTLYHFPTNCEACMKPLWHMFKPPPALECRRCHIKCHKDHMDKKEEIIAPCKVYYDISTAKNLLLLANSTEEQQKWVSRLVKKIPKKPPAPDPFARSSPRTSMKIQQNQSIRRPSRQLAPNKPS
Chain of ROCK1 (Q13464 whole entry): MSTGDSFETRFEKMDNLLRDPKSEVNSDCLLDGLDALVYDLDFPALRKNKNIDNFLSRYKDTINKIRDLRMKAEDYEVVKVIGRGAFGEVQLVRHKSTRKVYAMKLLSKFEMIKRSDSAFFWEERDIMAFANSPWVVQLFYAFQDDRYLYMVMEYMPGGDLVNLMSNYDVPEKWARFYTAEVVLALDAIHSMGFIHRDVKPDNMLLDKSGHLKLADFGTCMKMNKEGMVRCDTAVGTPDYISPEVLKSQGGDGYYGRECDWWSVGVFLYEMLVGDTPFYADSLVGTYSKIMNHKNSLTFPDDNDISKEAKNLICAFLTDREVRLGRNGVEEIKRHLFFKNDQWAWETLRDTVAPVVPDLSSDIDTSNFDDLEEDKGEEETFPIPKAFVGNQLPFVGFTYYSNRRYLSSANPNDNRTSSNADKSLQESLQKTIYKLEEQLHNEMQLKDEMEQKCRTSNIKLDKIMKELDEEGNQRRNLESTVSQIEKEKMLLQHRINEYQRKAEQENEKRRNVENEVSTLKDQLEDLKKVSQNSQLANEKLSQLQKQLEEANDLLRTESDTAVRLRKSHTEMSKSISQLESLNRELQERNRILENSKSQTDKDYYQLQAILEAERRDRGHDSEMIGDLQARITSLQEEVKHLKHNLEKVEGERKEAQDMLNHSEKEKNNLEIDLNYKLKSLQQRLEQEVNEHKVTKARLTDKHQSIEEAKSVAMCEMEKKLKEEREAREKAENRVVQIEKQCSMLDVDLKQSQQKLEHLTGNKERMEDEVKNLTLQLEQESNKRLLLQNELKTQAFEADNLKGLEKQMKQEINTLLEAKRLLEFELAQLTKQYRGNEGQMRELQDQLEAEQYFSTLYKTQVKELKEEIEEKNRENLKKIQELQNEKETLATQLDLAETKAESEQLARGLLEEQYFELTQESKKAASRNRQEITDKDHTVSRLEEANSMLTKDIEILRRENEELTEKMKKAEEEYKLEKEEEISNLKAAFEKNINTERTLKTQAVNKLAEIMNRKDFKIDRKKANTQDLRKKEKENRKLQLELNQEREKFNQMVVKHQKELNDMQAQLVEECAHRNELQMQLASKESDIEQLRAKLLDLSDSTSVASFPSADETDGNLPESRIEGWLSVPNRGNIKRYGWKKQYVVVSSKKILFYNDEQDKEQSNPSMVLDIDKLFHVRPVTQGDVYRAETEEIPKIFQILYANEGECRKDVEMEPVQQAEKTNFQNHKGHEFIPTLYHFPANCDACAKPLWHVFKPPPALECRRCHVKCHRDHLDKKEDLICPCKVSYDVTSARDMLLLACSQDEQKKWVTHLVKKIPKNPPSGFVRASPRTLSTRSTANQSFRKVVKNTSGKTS

As for `O=C(N[C@H](CO)c1cccc(F)c1)c1cc(-c2ccncc2)[nH]n1` [Compound 1], the 50% inhibitory concentration (IC50) (as a rule, the concentration that gives 50% inhibition) is 0.207 µM in assay [1], 0.098 µM in assay [2], above 100 µM in assay [3] and 67.6 µM in assay [4]. In assay [4], the “FLT3-ITD+ Selectivity (K562/MV411)” value is recorded as above 1.
With `O=C(NCc1cccc(O)c1)Nc1cc(-c2ccncc2)[nH]n1` [Compound 3], in assay [3], the IC50 was above 100 µM. For the same compound, in assay [4], the IC50 is 43.7 µM and the “FLT3-ITD+ Selectivity (K562/MV411)” value is above 2.
With `COc1cccc(CNC(=O)Nc2cc(-c3ccncc3)[nH]n2)c1` [Compound 5], the half-inhibitory concentration (IC50) was found to be 0.073 µM in assay [1], 0.0161 µM in assay [2], 43.6 µM in assay [3] and 10.2 µM in assay [4]. For the same compound, the “FLT3-ITD+ Selectivity (K562/MV411)” value in assay [4] came to 4.
Consider `COc1cccc(CN(C)C(=O)Nc2cc(-c3ccncc3)[nH]n2)c1` [Compound 7], for which the IC50 in assay [1] is 0.102 µM; in assay [2], 0.0229 µM; in assay [3] it was 89.1 µM; in assay [4], 7.6 µM. Further, the “FLT3-ITD+ Selectivity (K562/MV411)” value in assay [4] amounted to 12.
Regarding `COc1cccc(CN(CCO)C(=O)Nc2cc(-c3ccncc3)[nH]n2)c1` [Compound 9], the IC50 was 0.237 µM in assay [1], 0.0391 µM in assay [2], 97.2 µM in assay [3] and 39.8 µM in assay [4]. Besides, the “FLT3-ITD+ Selectivity (K562/MV411)” value in assay [4] is 2.
The like results for `COc1cccc(CN(CCN(C)C)C(=O)Nc2cc(-c3ccncc3)[nH]n2)c1` [Compound 11] were, in that order, 0.0636 µM, 0.0221 µM, above 100 µM, 14.5 µM and above 7.
Turning to `COc1cccc(CNC(=O)Nc2cnn(-c3ccncc3)c2)c1` [Compound 25], the IC50 came out at 0.13 µM in assay [1], 0.0287 µM in assay [2], 85 µM in assay [3] and 34 µM in assay [4]. The “FLT3-ITD+ Selectivity (K562/MV411)” value in assay [4] was found to be 3.
For the compound `COc1cccc(CNC(=O)c2cc3ccc(-c4cn[nH]c4)nc3s2)c1` [Compound 40], the IC50 in assay [1] was 0.0651 µM; in assay [2] it was 0.0174 µM; in assay [3], above 100 µM; in assay [4], 7.1 µM. The “FLT3-ITD+ Selectivity (K562/MV411)” value in assay [4] is above 14.
For `COc1cc(CNC(=O)Nc2cc(-c3ccncc3)[nH]n2)ccc1F` [Compound 47], the IC50 in assay [3] came out at 17.8 µM. For the same compound, in assay [4], the IC50 was 7.8 µM and the “FLT3-ITD+ Selectivity (K562/MV411)” value turned out to be 2.
`COc1cccc(CNC(=O)Nc2cc(-c3ccncc3)[nH]n2)c1F` [Compound 48]: the IC50 is 6.4 µM in assay [1] and 1.87 µM in assay [2].
Turning to `COc1cc(F)cc(CNC(=O)Nc2cc(-c3ccncc3)[nH]n2)c1` [Compound 49], the IC50 in assay [3] came out at 17.8 µM. Moreover, in assay [4], the IC50 is 7.8 µM and the “FLT3-ITD+ Selectivity (K562/MV411)” value is given as 2.
Consider `COc1ccc(F)c(CNC(=O)Nc2cc(-c3ccncc3)[nH]n2)c1` [Compound 50], for which the IC50 was 1.01 µM in assay [1], 0.239 µM in assay [2], above 100 µM in assay [3] and 7.8 µM in assay [4]. Besides, the “FLT3-ITD+ Selectivity (K562/MV411)” value in assay [4] is on record as above 13.
In the case of `COCCOc1cccc(CNC(=O)Nc2cc(-c3ccncc3)[nH]n2)c1` [Compound 51], in assay [3], the IC50 is above 100 µM. Further, in assay [4], the IC50 came out at 17 µM and the “FLT3-ITD+ Selectivity (K562/MV411)” value is above 6.
With `COc1cccc([C@@H](C)NC(=O)Nc2cc(-c3ccncc3)n[nH]2)c1` [Compound 52], the IC50 was 0.034 µM in assay [1], 0.0087 µM in assay [2], above 100 µM in assay [3] and 11.2 µM in assay [4]. For the same compound, the “FLT3-ITD+ Selectivity (K562/MV411)” value in assay [4] is on record as above 9.
`COc1cccc([C@@H](C)NC(=O)N(C)c2cc(-c3ccncc3)n[nH]2)c1` [Compound 53]: the 50% inhibitory concentration (IC50) in assay [3] is 64.6 µM; in assay [4] it was 93.3 µM. Further, in assay [4], the “FLT3-ITD+ Selectivity (K562/MV411)” value is reported as 1.
The corresponding values for `COc1ccc(OC)c(CNC(=O)Nc2cc(-c3ccncc3)n[nH]2)c1` [Compound 54] are above 100 µM, 12.6 µM and above 8.
`Cc1c[nH]c2nccc(Oc3c(F)cc(Nc4cc(Cl)nc(N)n4)cc3F)c12` [Compound A, reference compound]: the IC50 was determined as 0.8 µM in assay [3] and 0.7 µM in assay [4].
